US20120010075A1 (priority 2009, published 2012)
Read-outs that look alike come from different tables or passages of the source.

What was measured:
[1] = test system: Leptosphaeria nodorum (LEPTNO); experiment: In vitro fungitoxicity of hydrazones with and without copper towards Leptosphaeria nodorum (Example 26); type: cell-based; conditions: 72 h at 25° C.; for inhibition of growth at 0.05 µg/mL: Parastagonospora nodorum, 72 h, read-out: LEPTNO % Inhn. Minus Copper Observed
Phytophthora infestans = type: in vivo, Phytophthora infestans on tomato; conditions: applied 24 h before inoculation, assessed 7 days after inoculation
Phytophthora capsici = experiment: In vitro fungitoxicity of hydrazones with and without copper towards Phytophthora capsici (Example 28, Table 3); type: cell-based; conditions: for % Inhn Plus copper Observed: copper-plus AS medium (CuCl2, 50 μM); for inhibition of growth at 0.05 µg/mL / inhibition of growth at 0.039 µg/mL: Phytophthora capsici, read-out: % Inhn Minus copper Observed
Ustilago maydis = experiment: In vitro fungitoxicity of hydrazones with and without copper towards Ustilago maydis (Example 29, Table 4); type: cell-based; conditions: 1 μg/mL, 48 h; for % Inhn. Plus copper Observed: copper-plus medium (CuCl2, 10 μM); for inhibition of growth at 1 µg/mL: Mycosarcoma maydis, copper-minus medium, read-out: % Inhn. Minus copper Observed
[2] = test system: Septoria tritici isolate USA-184; experiment: In vitro fungitoxicity of hydrazones with and without copper towards Septoria tritici (Example 30, Table 5); type: cell-based; conditions: Zymoseptoria tritici, 0.05 μg/mL
[3] = compound 0.05 μg/mL, copper-minus medium
[4] = compound 0.05 μg/mL, copper-plus medium (CuCl2.2H2O)
[5] = hydrazone 50 ppm + 50 μM CuCl2.2H2O, tomato
[6] = 0.050 μg/mL, copper-minus AS medium, 48 h
[7] = 0.039 μg/mL, copper-minus AS medium, 48 h
[8] = Colby formula, CuCl2, read-out: % Inhibition Plus copper Predicted
[9] = copper-minus medium, 90 h, read-out: % Inhibition Minus copper Observed
[10] = copper-plus medium CuCl2, 90 h, read-out: % Inhibition Plus copper Observed

Structure (SMILES) | inhibition of growth at 0.05 µg/mL [1, 3] | LEPTNO % Inhn. Plus Copper Observed [1, 4] | TLB % Control (Phytophthora infestans; [5]) | % Inhn Plus copper Observed (Phytophthora capsici; 0.050 μg/mL, 48 h) | inhibition of growth at 0.05 µg/mL (Phytophthora capsici; [6]) | melting point | LEPTNO % Inhn. Minus Copper Observed [1, 3] | % Inhn Plus copper Predicted (Phytophthora capsici; 0.039 μg/mL, Colby formula, CuCl2, 50 μM) | % Inhn Minus copper Observed (Phytophthora capsici; [7]) | % Inhn Plus copper Observed (Phytophthora capsici; 0.039 μg/mL, 48 h) | % Inhn. Plus copper Observed (Ustilago maydis) | inhibition of growth at 1 µg/mL (Ustilago maydis) | inhibition at 0.05 µg/mL [2, 8] | inhibition at 0.05 µg/mL [2, 9] | inhibition at 0.05 µg/mL [2, 10] | inhibition of growth at 0.05 µg/mL ([1]; copper-minus medium, test compound Concn. 0.05 μg/mL) | LEPTNO % Inhn. Plus Copper Observed ([1]; copper-plus medium (CuCl2 10 μM), test compound Concn. 0.05 μg/mL) | TLB % Control (Phytophthora infestans; hydrazone 50 ppm with 50 μM CuCl2.2H2O, tomato late blight) | inhibition of growth at 0.039 µg/mL (Phytophthora capsici; [7])
O=C(N/N=C/c1cc(Cl)cc(Cl)c1O)c1cc(Cl)ccc1Br [Example 219] | 34.5% | 97.9% | 68.4% | 90.6% | 15.3% | 228 to 231 °C | – | – | – | – | – | – | – | – | – | – | – | – | –
O=C(N/N=C/c1cccc(F)c1O)c1ccccc1 [Example 15] | – | 96.6% | 58.5% | – | – | 197 to 198 °C | 4.4% | 81.2% | 80.4% | 91.8% | – | – | – | – | – | – | – | – | –
O=C(N/N=C/c1cc(Br)cc(Br)c1O)c1cc(I)ccc1Cl [Example 226] | 0% | 94.5% | 71.0% | 62.1% | 2.3% | 205 to 212 °C | – | – | – | – | – | – | – | – | – | – | – | – | –
COc1cc(Br)cc(/C=N/NC(=O)c2cccc(Br)c2)c1O [Example 204] | 7.3% | 95.5% | 77.2% | 81.9% | 6% | – | – | – | – | – | 77.0% | 0% | 0% | 0% | 84.4% | – | – | – | –
Cc1ccc(C(=O)N/N=C/c2ccccc2O)c(Br)c1 [Example 227] | 5% | 95.0% | 52.7% | 93.4% | 1.7% | 86 to 122 °C | – | – | – | – | – | – | – | – | – | – | – | – | –
O=C(N/N=C/c1cc(C(F)(F)F)cc(Cl)c1O)c1ccccc1O [Example 329] | – | – | – | – | – | 258 to 260 °C | – | – | – | – | 41.8% | 16.2% | 14.9% | 14.9% | 55.1% | 14% | 93.5% | 99.0% | –
Cc1ccc(C(=O)N/N=C/c2cc(Cl)cc(Cl)c2O)c(Br)c1 [Example 228] | 2.6% | 97.0% | 68.4% | 86.9% | 10% | 240 to 242 °C | – | – | – | – | – | – | – | – | – | – | – | – | –
COc1cccc(C(=O)N/N=C/c2cc(Cl)cc(Cl)c2O)c1C [Example 99] | 8.9% | 94.5% | 50.3% | – | – | 192 to 194 °C | – | – | – | 94.0% | – | – | – | – | – | – | – | – | 23.6%
Cc1cc(C)cc(C(=O)N/N=C/c2cc(Cl)cc(Cl)c2O)c1 [Example 102] | 0% | 93.4% | 74.0% | – | – | 207 to 209 °C | – | – | – | 93.6% | – | – | – | – | – | – | – | – | 15.7%
Cc1ccccc1C(=O)N/N=C/c1cc(Cl)cc(Br)c1O [Example 162] | 0% | 96.9% | 94.0% | 91.6% | 5.2% | – | – | – | – | – | 96.4% | 8.8% | 36.3% | 36.3% | 97.1% | – | – | – | –
O=C(N/N=C/c1cc(Cl)ccc1O)c1ccccc1O [Example 177] | 12.5% | 95.2% | 91.0% | 92.4% | 0% | – | – | – | – | – | 33.3% | 0% | 0.2% | 0.2% | 95.2% | – | – | – | –
O=C(N/N=C/c1cc(Br)cc(Br)c1O)c1cc(Cl)ccc1Br [Example 220] | 0% | 95.3% | 89.1% | 85.5% | 13.4% | 215 to 218 °C | – | – | – | – | – | – | – | – | – | – | – | – | –
